Source: patent publication US5714494A, “Xanthines in the 7th position with a benzyl acetic acid moiety” (Bayer Aktiengesellschaft, priority 1995, dated 1998)

Experiments:
VLDL secretion = test: Inhibition of VLDL secretion in vivo (rat) (Triton rat); conditions: 3 mg/kg p.o.
Experimental: The action of the test substances on VLDL secretion is also investigated in the rat. To do this, 500 mg/kg of body weight (2.5 ml/kg) of Triton WR-1339, dissolved in physiological saline solution, are administered to rats intravenously in the tail vein. Triton WR-1339 inhibits lipoprotein lipase and thus leads through inhibition of VLDL catabolism to an increase in the triglyceride and cholesterol level. These increases can be used as a measure of the VLDL secretion rate.
Blood is taken from the animals before and one and two hours after administration of the detergent by puncture of the retroorbital venous plexus. The blood is incubated at room temperature for 1 h for clotting and the serum is recovered by centrifugation at 10,000 g for 20 s. The triglycerides are then determined photometrically at a wavelength of 540 nm by means of a commercially available coupled enzyme test (Sigma Diagnostics®, No. 339). Measurement is carried out with the aid of a likewise coupled enzyme test (Boehringer Mannheim®, No. 1442350) at a wavelength of 546 nm. Samples with triglyceride or cholesterol concentrations which exceed the measuring range of the methods are diluted with physiological saline solution. The respective serum concentrations are determined with the aid of standard series measured in parallel. Test substances are administered orally, intravenously or subcutaneously immediately after the Triton injection.

[1] = system: ApoB-100-associated lipoproteins; test: Inhibition of the release of ApoB-100-associated lipoproteins from HepG2 cells (immunoassay for human LDL); type: cell-based; conditions: light absorption 450 nm vs solvent control
Experimental: The test for detecting inhibition of the release of ApoB-100-associated lipoproteins from liver cells was carried out in vitro using cultured liver cells, preferably using cells of the human line HepG2. These cells are grown under standard conditions in medium for the culture of eucaryotic cells, preferably in RPMI 1640 using 10% foetal calf serum. HepG2 cells synthesize and secrete into the culture supernatant ApoB-100-associated lipoprotein particles which in principle are synthesized in a similar manner to the VLDL and LDL particles which are to be found in the plasma.
These particles can be detected using an immunoassay for human LDL. This immunoassay is carried out using antibodies which have been induced in the rabbit against human LDL under standard conditions. The anti-LDL antibodies (rabbit anti-LDL-Ab) were purified by affinity chromatography on an immunosorbent using human LDL. These purified rabbit anti-LDL Ab are adsorbed on the surface of plastic. Expediently, this adsorption is carried out on the plastic surface of microtitre plates having 96 wells, preferably on MaxiSorp plates. If ApoB-100-associated particles are present in the supernatant of Hep-G2 cells, these can bind to the insolubilized rabbit anti-LDL Ab, and an immune complex is formed which is bound to the plastic surface. Unbound proteins are removed by washing. The immune complex located on the plastic surface is detected using monoclonal antibodies which have been induced against human LDL according to standard conditions and purified. These antibodies were conjugated with the enzyme peroxidase. Peroxidase converts the colourless substrate TMB into a coloured product in the presence of H2 O2. After acidification of the reaction mixture using H2 SO4, the specific light absorption at 450 mn is determined, which is a measure of the amount of ApoB-100-associated particles which have been secreted into the culture supernatant by the HepG2 cells.
The IC50 value indicates at which substance concentration the light absorption is inhibited by 50% in comparison with the control (solvent control without substance).

[2] = system: intestinal triglyceride absorption; test: Inhibition of intestinal triglyceride absorption in vivo (rats); design: species or system male Wistar rats; conditions: po; for Absorption ED50 or % inhibition: 2 h
Experimental: The substances which are to be investigated for their triglyceride absorption-inhibiting action in vivo are administered orally to male Wistar rats having a body weight of between 170 and 230 g. For this purpose, the animals are divided into groups of 6 animals 18 hours before administration of the substance and the feed is then withdrawn from them. Drinking water is available to the animals ad libitum. The animals of the control groups receive an aqueous tragacanth suspension or a tragacanth suspension which contains olive oil. The tragacanth-olive oil suspension is prepared using an Ultra-Turrax. The substances to be investigated are suspended directly before substance administration in a corresponding tragacanth-olive oil suspension, also using an Ultra-Turrax.
Before stomach tube application, blood is taken from each rat by puncture of the retroorbital venous plexus to determine the basal serum triglyceride content. The tragacanth suspension, the tragacanth-olive oil suspensions without substance (control animals) and the substances suspended in a corresponding tragacanth-olive oil suspension are then administered to the fasting animals using a stomach tube. Further taking of blood for the determination of the postprandial serum triglyceride rise is carried out, as a rule, 1,2 and 3 hours after stomach tube application.
The blood samples are centrifuged and, after recovering the serum, the triglycerides are determined photometrically using an EPOS analyzer 5060 (Eppendorf Geratebau, Netheler & Hinz GmbH, Hamburg). The triglycerides are determined by fully enzymatic means using a commercially available UV test.
The postprandial serum triglyceride increase is determined by subtraction of the triglyceride preliminary value of each animal from its corresponding postprandial triglyceride concentrations (1,2 and 3 hours after administration).
The differences (in mmol/l) at each time 1, 2 and 3 hours) are averaged in the groups, and the average values of the serum triglyceride increase (ΔTG) of the substance-treated animals are compared with the animals which only received the tragacanth-oil suspension.
Likewise, the serum triglyceride course of the control animals which received only tragacanth is calculated. The substance effect at each time (1, 2 or 3 hours) is determined as follows and given in Δ% of the oil-loaded control. [formula]
Effect of 10 mg of test substance/kg of body weight p.o. on the triglyceride increase (Δ%) 2 h after a triglyceride loading in the serum of fasting rats. The serum triglyceride increase of fat-loaded control animals based on the serum triglyceride level of tragacanth control animals corresponds to 100%. n=6 animals per group.
Statistical assessment was carried out using student3 s t test after prior checking of the variances for homogeneity.

[3] = Homo sapiens, HepG2, HepG2 cells

| Compound | IC50 [1, 3] [nM] | Absorption ED50 or % inhibition [2] [mg/kg] | other results |
| --- | --- | --- | --- |
| Cn1c(=O)c2c(nc(Cc3ccccc3)n2Cc2ccc(C(C(=O)N[C@@H](CO)c3ccccc3)C3CCCCCC3)cc2)n(C)c1=O (single isomer, unassigned) [Example 175] | 32 | – | inhibition in vivo at 3 mg/kg (VLDL secretion; Rattus norvegicus, po, 2 h, (n.s.) for 112, 114, 117, 154, 175, 176, 227, read-out: Triton rat % TG inhibition (p.o.) 2 h after substance): 9.8% |
| Cn1c(=O)c2c(nc(Cc3ccccc3)n2Cc2ccc(C(C(=O)N[C@@H](CO)c3ccccc3)C3CCCCCC3)cc2)n(C)c1=O (single isomer, unassigned) [Example 176] | – | – | Triton rat % TG inhibition (p.o.) 2 h after substance (VLDL secretion; (n.s.) for 112, 114, 117, 154, 175, 176, 227): 6.2%; IC50 ([1]; HepG2 cells): 19 nM |
| Cn1c(=O)c2c(nc(CC3CCCCC3)n2Cc2ccc(C(C(=O)N[C@@H](CO)c3ccccc3)C3CCCC3)cc2)n(C)c1=O (stereo partly shown) [Example 123] | 8 | – | ED50 ([2]; Rattus norvegicus, serum triglyceride increase 2 h after triglyceride loading, fasting rats, read-out: Absorption ED50 or % inhibition): 2 mg/kg |
| Cc1cccc(-c2nc3c(c(=O)n(C)c(=O)n3C)n2Cc2ccc(C(C(=O)N[C@@H](CO)c3ccccc3)C3CCCC3)cc2)c1 (stereo partly shown) [Example 133] | 5 | 2 | – |
| Cn1c(=O)c2c(nc(-c3ccc(Cl)cc3)n2Cc2ccc(C(C(=O)N[C@@H](CO)c3ccccc3)C3CCCC3)cc2)n(C)c1=O (stereo partly shown) [Example 140] | 10 | > 3 | – |
| Cn1c(=O)c2c(nc(-c3ccc(C(F)(F)F)cc3)n2Cc2ccc(C(C(=O)N[C@@H](CO)c3ccccc3)C3CCCC3)cc2)n(C)c1=O (stereo partly shown) [Example 143] | 11 | > 3 | – |
| COc1ccc(-c2nc3c(c(=O)n(C)c(=O)n3C)n2Cc2ccc(C(C(=O)N[C@@H](CO)c3ccccc3)C3CCCC3)cc2)cc1 (stereo partly shown) [Example 146] | 6 | > 3 | – |
| CN(C)c1ccc(-c2nc3c(c(=O)n(C)c(=O)n3C)n2Cc2ccc(C(C(=O)N[C@@H](CO)c3ccccc3)C3CCCC3)cc2)cc1 (stereo partly shown) [Example 149] | 9 | > 3 | – |
| Cn1c(=O)c2c(nc(-c3ccccn3)n2Cc2ccc(C(C(=O)N[C@@H](CO)c3ccccc3)C3CCCC3)cc2)n(C)c1=O (stereo partly shown) [Example 151] | 34 | 6 | – |
| Cc1ccsc1-c1nc2c(c(=O)n(C)c(=O)n2C)n1Cc1ccc(C(C(=O)N[C@@H](CO)c2ccccc2)C2CCCC2)cc1 (stereo partly shown) [Example 160] | 5 | 3 | – |
| Cn1c(=O)c2c(nc(C=Cc3ccccc3)n2Cc2ccc(C(C(=O)N[C@@H](CO)c3ccccc3)C3CCCC3)cc2)n(C)c1=O (stereo partly shown) [Example 167] | 19 | > 2 | – |
| Cn1c(=O)c2c(nc(Cc3ccccc3)n2Cc2ccc(C(C(=O)N[C@@H](CO)c3ccccc3)C3CCCCCC3)cc2)n(C)c1=O (stereo partly shown) [Example 174] | 5 | < 2 | – |
| Cc1ccccc1Cc1nc2c(c(=O)n(C)c(=O)n2C)n1Cc1ccc(C(C(=O)N[C@@H](CO)c2ccccc2)C2CCCC2)cc1 (stereo partly shown) [Example 178] | 64 | 3 | – |
| Cc1cccc(Cc2nc3c(c(=O)n(C)c(=O)n3C)n2Cc2ccc(C(C(=O)N[C@@H](CO)c3ccccc3)C3CCCC3)cc2)c1 (stereo partly shown) [Example 179] | 5 | > 3 | – |
| Cc1ccc(Cc2nc3c(c(=O)n(C)c(=O)n3C)n2Cc2ccc(C(C(=O)N[C@@H](CO)c3ccccc3)C3CCCC3)cc2)cc1 (stereo partly shown) [Example 182] | 12 | 2 | – |
| Cn1c(=O)c2c(nc(Cc3cccc(Cl)c3)n2Cc2ccc(C(C(=O)N[C@@H](CO)c3ccccc3)C3CCCC3)cc2)n(C)c1=O (stereo partly shown) [Example 191] | 14 | > 3 | – |

| Compound | IC50 [1, 3] [nM] | Absorption ED50 or % inhibition [2] [mg/kg] | other results |
| --- | --- | --- | --- |
| COc1ccccc1Cc1nc2c(c(=O)n(C)c(=O)n2C)n1Cc1ccc(C(C(=O)N[C@@H](CO)c2ccccc2)C2CCCC2)cc1 (stereo partly shown) [Example 197] | 43 | 3 | – |
| COc1cccc(Cc2nc3c(c(=O)n(C)c(=O)n3C)n2Cc2ccc(C(C(=O)N[C@@H](CO)c3ccccc3)C3CCCC3)cc2)c1 (stereo partly shown) [Example 198] | 5 | – | – |
| COc1ccc(Cc2nc3c(c(=O)n(C)c(=O)n3C)n2Cc2ccc(C(C(=O)N[C@@H](CO)c3ccccc3)C3CCCC3)cc2)cc1 (stereo partly shown) [Example 201] | 11 | > 3 | – |
| Cn1c(=O)c2c(nc(Cc3ccccc3O)n2Cc2ccc(C(C(=O)N[C@@H](CO)c3ccccc3)C3CCCC3)cc2)n(C)c1=O (stereo partly shown) [Example 204] | 16 | – | – |
| Cn1c(=O)c2c(nc(Cc3cccc(O)c3)n2Cc2ccc(C(C(=O)N[C@@H](CO)c3ccccc3)C3CCCC3)cc2)n(C)c1=O (stereo partly shown) [Example 207] | 40 | – | – |
| CCn1c(=O)c2c(ncn2Cc2ccc(C(C(=O)N[C@@H](CO)c3ccccc3)C3CCCC3)cc2)n(CC)c1=O (stereo partly shown) [Example 211] | 9 | – | – |
| CCc1nc2c(c(=O)n(CC)c(=O)n2CC)n1Cc1ccc(C(C(=O)N[C@@H](CO)c2ccccc2)C2CCCC2)cc1 (stereo partly shown) [Example 215] | 3 | – | – |
| CCn1c(=O)c2c(nc(C3CC3)n2Cc2ccc(C(C(=O)N[C@@H](CO)c3ccccc3)C3CCCC3)cc2)n(CC)c1=O (stereo partly shown) [Example 216] | 34 | – | – |
| CCn1c(=O)c2c(nc(-c3ccccc3)n2Cc2ccc(C(C(=O)N[C@@H](CO)c3ccccc3)C3CCCC3)cc2)n(CC)c1=O (stereo partly shown) [Example 217] | 11 | – | – |
| CCn1c(=O)c2c(nc(-c3ccc(C)cc3)n2Cc2ccc(C(C(=O)N[C@@H](CO)c3ccccc3)C3CCCC3)cc2)n(CC)c1=O (stereo partly shown) [Example 218] | 8 | – | – |
| CCn1c(=O)c2c(nc(-c3cccs3)n2Cc2ccc(C(C(=O)N[C@@H](CO)c3ccccc3)C3CCCC3)cc2)n(CC)c1=O (stereo partly shown) [Example 219] | 5 | – | – |
| Cc1nc2c(c(=O)n(C)c(=S)n2C)n1Cc1ccc(C(C(=O)N[C@@H](CO)c2ccccc2)C2CCCC2)cc1 (stereo partly shown) [Example 223] | 4 | – | – |
| CCc1nc2c(c(=O)n(C)c(=S)n2C)n1Cc1ccc(C(C(=O)N[C@@H](CO)c2ccccc2)C2CCCC2)cc1 (stereo partly shown) [Example 224] | 4 | – | – |
| Cn1c(=O)c2c(nc(-c3cccs3)n2Cc2ccc(C(C(=O)N[C@@H](CO)c3ccccc3)C3CCCC3)cc2)n(C)c1=S (stereo partly shown) [Example 225] | 4 | – | – |
| Cc1ccc(-c2nc3c(c(=O)n(C)c(=S)n3C)n2Cc2ccc(C(C(=O)N[C@@H](CO)c3ccccc3)C3CCCC3)cc2)cc1 (stereo partly shown) [Example 226] | 11 | – | – |
